The values below are quoted from earlier work in patent US20060111343A1, “Oxcarbazepine dosage forms” (Glenmark Pharmaceuticals Limited, priority 2004, published 2006).

For `NC(=O)N1c2ccccc2CC(=O)c2ccccc21` [Oxcarbazepine, 10,11-dihydro-10-oxo-5H-dibenzo[b,]azepine-5-carboxamide], the solubility in water result is reported as “poor solubility in water”.
